The source of these data is patent publication US8735620B2, “Processes for preparing (E)-styrylbenzylsulfone compounds and uses thereof for treating proliferative disorders” (priority 2008, dated 2014).

One series concerns HUVEC. Kind of series: PARP cleavage western blot, normal cells. It counts as cell-based, human. Conditions: HUVEC, 24, 48 and 72 h. The protocol: (§1) FIG. 2 Preferential tumor cell killing activity of 6aa. A. Cell Cycle analyses. Normal (HUVEC) and tumor cells (DU145) were treated with 20 nM concentration of 6aa and incubated in medium containing 10% fetal bovine serum. At 24 hr intervals, the cells were fixed, stained with propidium iodide and analyzed for their DNA content by flow Cytometry. B. Induction of apoptosis in normal (HUVEC) and tumor cells (DU145) was assessed by western blot analysis of cell lysates treated with 6aa for 24, 48 and 72 h. The Western blots were probed with anti-PARP antibodies to assess the cleavage of the protein.
(§2) […] were plated at a density of 3.0×10^6 cells per 150 mm^2 plate and treated 24 h later with either DMSO or 6aa. The cells were collected at the indicated time points and cell pellets were frozen. The frozen cell pellets were lysed in 1% NP40/PBS lysis buffer containing protease inhibitors. Equal amounts of total cellular protein was then resolved on a 10%-SDS-polyacrylamide gel. The gels were transferred onto nitrocellulose paper (S/S), hybridized with anti-PARP antibodies (BD) and developed using ECL (Perkin-Elmer, MA) solution.

In another series the test system is 2008/17/4. The series can be described thus: Tumor cell killing, 2008/17/4. Conditions: *2008/17/4, Resistant Ovarian (multi-drug resistant); read-out: Tumor cell killing (IC50) concentration. It counts as cell-based, human. The protocol:
(§3) Tissue Culture and Reagents: Paclitaxel was purchased from Sigma. Cell lines were purchased from ATCC. Cell lines were routinely grown in DMEM or RPM1 (CellGro) supplemented with 10% fetal bovine serum (Atlas) and 1 unit/mL penicillin-streptomycin (Gibco).
(§4) A number of tumor cell lines were tested using a dose response end point assay system. The cells were grown in either DMEM or RPMI supplemented with 10% fetal bovine serum and 1 unit/mL Penicillin-Streptomycin solution. The tumor cells were plated into 6 well dishes at a cell density of 1.0×10^5 cells/mL/well and compounds were added 24 h later at various concentrations. Cell counts were determined from duplicate wells after 96 h of treatment. The total number of viable cells was determined by trypan blue exclusion.

The test system of a further series is bone marrow cells. Kind of series: Bone marrow harvest and colony formation assay. It is filed as in vivo, CD-1 mice. The following applies: 100 mg/kg intravenously, 12, 24 and 48 h after injection. The procedure: FIG. 4 Bone marrow toxicity profile of 6ab. To assess the toxicity of 6ab, the phosphate salt of the drug was injected into mice (100 mg/Kg) and bone marrow harvested from femur and tibia after 12, 24 and […] following the injection of the drug. The bone marrow cells were cultured in methylcellulose medium supplemented with a mixture of stem cell factor, GM-CSF, IL-3 and erythropoietin for one week and colony forming units were determined.
Bone marrow was harvested from femur and tibia of CD-1 mice injected with 200 μL of PBS or 6ab [10 mg/mL:100 mg/kg dose] at 12, 24, or 48 h before the sacrifice. The bone marrow cells were cultured in Methylcellulose medium supplemented with 50 ng/mL rmStem Cell Factor, 10 ng/mL rmIL-3, 10 ng/mL rh IL-6, 200 μg/mL human Transfeffin, and 3 units/mL rhErythropoietin (Stem Cell Technologies, Vancouver, BC, Canada). Cultures were seeded in duplicates using 35 mm plastic petri dishes and colony forming units were determined after one week.

Series [1] deals with panel of 60 human cancer cell-lines. The series can be described thus: NCI Developmental Therapeutics Program panel of 60 human cancer cell-lines. Conditions: at nanomolar concentrations, including drug-resistant cell-lines. It counts as cell-based.
Another series concerns SK-MEL-28. Kind of series: Tumor cell killing, SK-MEL-28. It is filed as cell-based, human. Conditions: SK-MEL-28, MELANOMA; read-out: Tumor cell killing (IC50) concentration.
The next series concerns MIA-PaCa-2 cells. The series can be described thus: Soft agar colony formation, MIA-PaCa-2. It is filed as cell-based, human. The following applies: MIA-PaCa-2, dose dependent, three weeks. The protocol: FIG. 1 Anti-tumor effects of (E)-2,4,6-Trimethoxystyryl-3-Hydroxy-4-Methoxybenzyl Sulfone (6aa). A. 6aa inhibits the growth of parental (MES-SA) and Paclitaxel resistant (MES-SA/DX5) cell lines with equal efficiency. The parental uterine sarcoma cells and the MDR positive (MES-SA/DX5) cells were plated into 6 well dishes and treated with various concentrations of 6aa and Paclitaxel for 96 h. The number of viable cells from duplicate plates was determined by trypan blue exclusion. B. Soft Agar Assays. MIA-PaCa-2 cells (1.0×10^5) were plated in soft agar containing various concentrations of each compound in triplicates. After three weeks of growth, the plates were stained for 48 h using 0.05% nitroblue tetrazolium solution. Representative plates were photographed using an Olympus stereoscope mounted with a Sony digital camera system (DKC5000, Sony Inc).
The soft agar plates were prepared as described by Cosenza, et al (Cosenza, S. C. et al. In Cell Growth, Differentiation and Senescence, Studzinski, G. P., Ed.; Oxford University Press: 1999, 161-176.). Briefly, Noble bottom agar (0.8%) was plated onto 60 mm tissue culture plates. Exponentially growing MIA-PaCa-2 cells (1.0×10^5) were mixed with growth medium with various concentrations of each compound and mixed with Noble agar to a final concentration of 0.4%. Each concentration was plated in triplicate. The top agar was allowed to solidify and the plates were then incubated at 5% CO2 at 37° C. for 3 weeks. The plates were then stained with 0.05% nitroblue tetrazolium (NBT) solution and representative plates were photographed using an Olympus stereoscope mounted with a Sony digital camera system (DKC5000, Sony Inc).

Another series deals with SW480. Kind of series: Tumor cell killing, SW480. It is filed as cell-based, human. Conditions: SW480, COLO-RECTAL; read-out: Tumor cell killing (IC50) concentration. The protocol: as §3, §4
For a further series, the system named is DU145. Kind of series: PARP cleavage western blot, tumor cells. Conditions: tumor cells (DU145), 24, 48 and 72 h. It counts as cell-based, human. The procedure:
as §1, §2

Another series has as its system N417. The series can be described thus: Tumor cell killing, N417. It counts as cell-based, human. The following applies: N417, SCLC; read-out: Tumor cell killing (IC50) concentration.
Another series has as its system Sk-OV-3. Kind of series: Tumor cell killing, Sk-OV-3. It is filed as cell-based, human. The following applies: Sk-OV-3, OVARIAN; read-out: Tumor cell killing (IC50) concentration. The protocol: as §3, §4
The test system of a further series is RF48. The series can be described thus: Tumor cell killing, RF48. It is filed as cell-based, human. The following applies: RF48, GASTRIC; read-out: Tumor cell killing (IC50) concentration.

In the case of `COc1cc(OC)c(/C=C/S(=O)(=O)Cc2ccc(OC)c(O)c2)c(OC)c1` [6aa, (E)-2,4,6-Trimethoxystyryl-3-Hydroxy-4-Methoxybenzyl Sulfone], the PARP cleavage entry in the series on HUVEC is recorded as “No PARP cleavage was observed”. In addition, the IC50 in the series with 2008/17/4 stood at 4 nM; in the series on SK-MEL-28, 7 nM; in the series on SW480, 7 nM; in the series on N417, 5 nM; in the series with Sk-OV-3, 6 nM; in the series on RF48 it was 5 nM. Moreover, the “in vitro hematopoietic colony formation of bone marrow cells” value in the series with bone marrow cells is recorded as “no reduction in total, myeloid or lymphoid colony formation”. Besides, the “growth inhibition of NCI 60 cell-line panel” value in series [1] is reported as “inhibited the growth of all of the tested cell lines”. In the series with MIA-PaCa-2 cells, the “growth of tumor cells in soft agar” value was “complete inhibition of the growth of tumor cells”. The “apoptosis as judged by PARP cleavage” value in the series with DU145 is given as “activation of apoptotic pathways”.

For the compound `COc1ccc(CS(=O)(=O)/C=C/c2c(OC)cc(OC)cc2OC)cc1` [6s, (E)-2,4,6-Trimethoxystyryl-4-Methoxybenzyl sulfone], the “growth inhibition of NCI 60 cell-line panel” value in series [1] is given as “inhibited the growth of all of the tested cell lines”. The IC50 in the series on SK-MEL-28 came out at 40 nM; with N417, 8 nM; in the series on RF48 it was 10 nM.
